According to patent publication US7671061B2, “Methods and compositions for treating pain” (Hydra Biosciences, Inc., priority 2005, dated 2010):
Entries after “also recorded” stand apart in the source; their conditions may differ. Like-named read-outs stand apart in the source and are kept apart here.

How the values were obtained:
hERG = hERG (Homo sapiens, UniProt Q12809); experiment: in vitro; details: selective for TRPA1 over hERG
hTRPA1 = target: T1, hTRPA1 (Homo sapiens, UniProt O75762, K186N); experiment: TRPA1 patch clamp (perforated patch, AITC-activated current); assay type: cell-based
T1 construct: expressed in transfected cells; host or cells: HEK293/TREx (Invitrogen), induced with tetracycline
Summary of the method: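 HEK293 TREx cells expressing the channel were recorded by amphotericin perforated patch at −40 mV holding, with 400 ms ramps from −120 to +100 mV every 5 s. Current was activated with 5 μM AITC in pH 7.4 external solution, and block of inward and outward current was measured at −80 and +80 mV with AITC still present.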

[1] = test system: bradykinin induced tactile allodynia; experiment: Bradykinin induced pain model; assay type: in vivo, rat
Protocol: As outlined above, the bradykinin model involves an intraplantar injection of a 5 ng/uL solution of bradykinin. Injection of the bradykinin solution typically causes a rapid sensitization. Sensitization is measured by assessing the thermal escape latency of the injected paw in response to a mild thermal stimulus delivered by a modified Hargreaves apparatus. FIGS. 1a and 1b summarize data obtained following testing of Compound 200 in the bradykinin model. This study examined the antinociceptive effects of 200 mg/kg, 50 mg/kg, and 12.5 mg/kg intraperitoneal Compound 200 on bradykinin induced tactile allodynia. […] Inhibitor or vehicle were injected intraperitoneally (IP). […] Throughout the study, general behavioral assessments were made during each period of observation. Observations included tactile allodynia (vocalization/agitation induced by light touch applied to the body surface), spontaneous vocalization, biting and chewing of body surface, loss of hind limb placing and stepping reflex, loss of hind limb weight bearing, and loss of righting reflex. Additionally, mechanical allodynia was assessed and measured. The results provided in FIGS. 1a and 1b are based on assessment of mechanical allodynia.

[2] = test system: carrageenan-induced inflammation; experiment: Carrageenan model of acute inflammatory pain (paw volume); assay type: in vivo, rat; details: IP, carrageenan injected paw
Protocol: In this study, the drug administered was either a TRPA1 inhibitor or the non-steroidal anti-inflammatory diclofenac. Following administration of both carrageenan and drug or vehicle control, paw volume was measured and used to assess decreased inflammation.

formalin model = experiment: Formalin model of pain; assay type: in vivo, rat; details: both Early Phase and Late Phase, drug 15 min before formalin
Protocol: As outlined above, the formalin model involves injection of a formalin solution intradermally or […]. Injection of formalin solution invokes a biphasic response, and thus provides a model for both nociceptive and inflammatory pain. The formalin model can be used to evaluate the effectiveness of an exemplary TRPA1 inhibitor in the treatment of pain. […] Briefly, the following protocol was followed. Male Holtzmann rats received intraplantar injections of 50 μL of 2% formalin. Paw flinching was detected by an automated sensor detecting movement of a small metal band placed on the injected hind paw. Drug or vehicle was administered approximately 15 minutes prior to the injection of formalin. The animal's response to injection of the irritant was measured by counting flinches per minutes during the Early Phase (the first 5 minutes following injection of formalin), during the Late Phase (approximately 30 minutes after injection of formalin), and during the intervening pain free phase. In FIG. 2, the right most bar for each data set (Early Phase and Late Phase) represents administration of vehicle alone and the left most bar represents administration of gabapentin. […]

T1 sequence (O75762 whole entry K186N): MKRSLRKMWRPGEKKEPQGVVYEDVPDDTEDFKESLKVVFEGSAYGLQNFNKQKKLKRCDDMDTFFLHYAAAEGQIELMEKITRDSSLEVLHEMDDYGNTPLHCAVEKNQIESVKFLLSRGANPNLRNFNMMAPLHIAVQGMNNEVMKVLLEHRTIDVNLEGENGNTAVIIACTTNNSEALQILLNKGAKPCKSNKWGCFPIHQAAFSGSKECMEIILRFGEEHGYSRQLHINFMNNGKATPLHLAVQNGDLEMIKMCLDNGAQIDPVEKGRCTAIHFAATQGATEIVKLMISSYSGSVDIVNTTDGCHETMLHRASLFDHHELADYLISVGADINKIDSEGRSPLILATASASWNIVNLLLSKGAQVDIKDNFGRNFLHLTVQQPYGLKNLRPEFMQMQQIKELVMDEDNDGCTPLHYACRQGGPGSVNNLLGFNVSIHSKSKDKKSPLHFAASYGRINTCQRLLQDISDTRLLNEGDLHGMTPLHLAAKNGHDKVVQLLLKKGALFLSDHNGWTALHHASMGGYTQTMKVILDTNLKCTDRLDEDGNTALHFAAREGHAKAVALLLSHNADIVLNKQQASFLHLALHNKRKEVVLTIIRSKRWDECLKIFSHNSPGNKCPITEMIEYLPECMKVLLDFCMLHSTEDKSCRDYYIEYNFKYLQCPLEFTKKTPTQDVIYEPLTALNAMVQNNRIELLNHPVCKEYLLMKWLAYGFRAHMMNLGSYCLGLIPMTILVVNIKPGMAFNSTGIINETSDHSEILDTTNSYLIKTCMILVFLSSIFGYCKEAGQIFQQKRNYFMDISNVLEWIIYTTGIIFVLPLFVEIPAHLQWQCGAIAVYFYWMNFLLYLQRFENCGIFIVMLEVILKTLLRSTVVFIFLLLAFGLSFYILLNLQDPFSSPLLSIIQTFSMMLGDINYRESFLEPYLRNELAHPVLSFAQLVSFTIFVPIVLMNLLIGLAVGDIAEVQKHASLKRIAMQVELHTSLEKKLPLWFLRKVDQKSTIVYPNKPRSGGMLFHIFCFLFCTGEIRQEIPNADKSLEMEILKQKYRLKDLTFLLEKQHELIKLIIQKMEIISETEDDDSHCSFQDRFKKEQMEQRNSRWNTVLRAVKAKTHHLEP
hERG, sequence (Q12809 whole entry): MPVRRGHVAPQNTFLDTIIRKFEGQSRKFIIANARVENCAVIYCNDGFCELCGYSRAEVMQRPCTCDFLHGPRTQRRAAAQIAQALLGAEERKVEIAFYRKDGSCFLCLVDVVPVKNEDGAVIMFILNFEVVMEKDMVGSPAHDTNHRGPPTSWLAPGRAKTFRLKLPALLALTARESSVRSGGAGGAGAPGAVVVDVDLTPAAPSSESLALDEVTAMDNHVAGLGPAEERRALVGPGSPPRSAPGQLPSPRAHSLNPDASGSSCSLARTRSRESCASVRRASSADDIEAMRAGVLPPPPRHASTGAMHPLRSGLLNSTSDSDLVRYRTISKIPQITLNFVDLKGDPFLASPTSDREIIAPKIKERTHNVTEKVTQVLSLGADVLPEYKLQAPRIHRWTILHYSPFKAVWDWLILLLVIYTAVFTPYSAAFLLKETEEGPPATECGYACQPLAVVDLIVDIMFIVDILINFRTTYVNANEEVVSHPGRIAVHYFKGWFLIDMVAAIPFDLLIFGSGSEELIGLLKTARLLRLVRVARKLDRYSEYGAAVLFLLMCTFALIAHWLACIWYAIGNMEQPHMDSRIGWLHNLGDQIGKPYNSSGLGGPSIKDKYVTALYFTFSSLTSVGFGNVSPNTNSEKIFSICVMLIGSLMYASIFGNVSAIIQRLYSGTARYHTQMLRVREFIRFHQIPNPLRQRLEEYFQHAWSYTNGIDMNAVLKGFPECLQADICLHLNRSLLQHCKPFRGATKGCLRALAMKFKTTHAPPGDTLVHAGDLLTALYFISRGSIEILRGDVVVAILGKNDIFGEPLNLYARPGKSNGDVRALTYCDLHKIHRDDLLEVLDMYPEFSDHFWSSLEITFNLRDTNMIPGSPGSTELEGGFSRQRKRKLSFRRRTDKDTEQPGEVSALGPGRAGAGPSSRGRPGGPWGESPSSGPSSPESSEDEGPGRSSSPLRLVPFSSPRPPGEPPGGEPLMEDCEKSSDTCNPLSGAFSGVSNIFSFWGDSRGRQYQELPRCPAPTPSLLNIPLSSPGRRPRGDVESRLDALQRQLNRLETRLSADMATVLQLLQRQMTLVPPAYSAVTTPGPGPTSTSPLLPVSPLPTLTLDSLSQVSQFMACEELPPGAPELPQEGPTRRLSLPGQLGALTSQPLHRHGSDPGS

CC(C)c1ccc(NC(=O)Cn2cnc3c2c(=O)n(C)c(=O)n3C)cc1 [Compound 200, 2-(1,3-dimethyl-2,6-dioxo-1,2,3,6-tetrahydropurin-7-yl)-N-(4-isopropylphenyl)acetamide]
selectivity ratio (hERG): ≥ 20 | IC50 (hTRPA1; Table 2, inward current, read-out: hTRPA1 Patch Inwd IC50): ≤ 5 µM | IC50 (hTRPA1; stated in Example 4 (1000 nM=355 ng/mL), read-out: IC50 against TRPA1): 1 µM | effect on mechanical threshold / allodynia after bradykinin injection ([1]; IP 12.5, 50, 200 mg/kg, 30 min before bradykinin): dose dependent effect; also recorded: dose dependent decrease of allodynia | changes in behavioral parameters ([1]; IP doses up to 200 mg/kg): no changes in behavioral parameters were noted | duration of effect on mechanical threshold ([1]; IP doses up to 200 mg/kg): approximately 60 minutes | rats with mild sedation ([1]; highest dose (200 mg/kg IP)): 3 of 8 | paw volume (inflammation) [2]: decreased | flinches per minute (formalin model): substantially reduced
